Entries after “also recorded” stand apart in the source; their conditions may differ.

Data set [1] is described as follows: Stability of bleach catalysts: UV-vis absorbance at 445 nm and appearance of alkaline solutions. The conditions noted are these: for Absorption at 445 nm, t = 0 / Absorption at 445 nm, t = 48 h: 0.28 mM in 50 wt. % water/50 wt. % acetone; for Absorption at 445 nm, t = 0 / Appearance, t = 0: pH 11, t = 0; for Absorption at 445 nm, t = 48 h / Appearance, t = 48 h: pH 11, t = 48 h; for Appearance, t = 0 / Appearance, t = 48 h: alkaline conditions. It counts as physicochemical. On the procedure: The stability of bleach catalysts having the structures shown in Table 1 was determined by preparing solutions of these compounds and measuring their UV-vis absorbance. The person skilled in the art will know how to synthesise the catalysts shown below starting from saccharine.
A solution of each compound was prepared by dissolving each compound in a mixture of 50 wt. % water and 50 wt. % acetone. The concentration of each solution was 0.28 mM.
The pH of each solution was set to 11 by adding few drops of a diluted solution of sodium percarbonate to mimic the alkaline conditions of the final formula.
The UV-vis absorption of each solution was measured just after preparing the samples (t=0), then at 2 h and 48 h using a UV-Vis Evolution 220 FC-1135 spectrophotometer using a 2 mm quartz cuvette.

Data set [2] is described as follows: Kinetic of Tropaeolin-O degradation (UV-Vis absorbance at 430 nm). The conditions noted are these: statement in text on Table 5. How it is done:
These tests were performed following the procedure described in US2012/0205581 A1. Here, Tropaeolin-O was used as sensor molecule to describe the oxidation kinetic of the different catalysts. The catalytic activity of a bleach catalyst is given by the photocatalytic degradation of tropaeolin-O under visible light irradiation.
The kinetic of tropaeolin-O degradation of each sample was determined by measuring the UV-Vis absorbance of the sample every 60 seconds for a total period of 20 minutes at 430 nm. This was done using a UV-Vis Evolution 220 FC-1135 spectrophotometer.
A base detergent system containing tropaeolin-O was prepared by adding to 1000 mL of demineralized water at 40° C., the following ingredients: • 2.92 g of Ariel Gel (as sold in the UK), • 0.088 g of Tropaeolin-O (purity ex. Sigma and used as received), • 1.75 g of Sodium percarbonate (purity: 13.3 wt. % active oxygen), • 0.10 g of bleach activator tetraacetylethylenediamine (TEAD, purity: 92 wt. % active) […]
The 430 nm absorption peak associated to the decomposition of the sensor molecule, i.e., Tropaeolin-O, after addition of a detergent system was followed over time. […] Absorbance in Table 5 is given in absorbance units (a.u.)

With `CC1=NS(=O)(=O)c2ccccc21` [Bleach catalyst A, 3-methyl-1,2-benzisothiazole-1,1-dioxide], in data set [1], the “Absorption at 445 nm, t = 0” value is given as less than 0.05; the “Absorption at 445 nm, t = 48 h” value is listed as 0.37; the “Appearance, t = 0” value is reported as “Transparent”; the “Appearance, t = 48 h” value was “coloured/yellow; also recorded: Yellowing”.

For `CC(C)(C)C1=NS(=O)(=O)c2ccccc21` [Bleach catalyst C, 3-tert-butyl-1,2-benzisothiazole-1,1-dioxide], in data set [1], the “Absorption at 445 nm, t = 0” value is listed as less than 0.05; the “Absorption at 445 nm, t = 48 h” value is given as less than 0.05; the “Appearance, t = 0” value is “Transparent”; the “Appearance, t = 48 h” value is on record as “Transparent”.

Regarding `O=S1(=O)N=C(c2cccnc2)c2ccccc21` [Bleach catalyst 2, 3-(pyridin-3-yl)-1,2-benzisothiazole-1,1-dioxide], in data set [2], the “activity / performance (tropaeolin-O decomposition), in words” value is “enhanced activity”. Besides, in data set [1], the “stability of the bleach catalyst, in words” value was “stable”; the “Absorption at 445 nm, t = 0” value was less than 0.05; the “Absorption at 445 nm, t = 48 h” value was less than 0.05; the “Appearance, t = 0” value is “Transparent”. Also, in data set [1], the “Appearance, t = 48 h” value is on record as “Transparent”.

For the molecule `O=S1(=O)N=C(c2ccccn2)c2ccccc21` [Bleach catalyst 1, 3-(pyridin-2-yl)-1,2-benzisothiazole-1,1-dioxide], the “activity / performance (tropaeolin-O decomposition), in words” value in data set [2] is recorded as “enhanced activity”. In data set [1], the “stability of the bleach catalyst, in words” value is “stable”; the “Absorption at 445 nm, t = 0” value was less than 0.05; the “Absorption at 445 nm, t = 48 h” value is given as less than 0.05; the “Appearance, t = 0” value is “Transparent”. Further, in data set [1], the “Appearance, t = 48 h” value was “Transparent”.

Regarding `O=S1(=O)N=C(c2ccccc2)c2ccccc21` [Bleach catalyst B, 3-phenyl-1,2-benzisothiazole-1,1-dioxide], in data set [1], the “Absorption at 445 nm, t = 0” value is on record as less than 0.05; the “Absorption at 445 nm, t = 48 h” value is less than 0.05; the “Appearance, t = 0” value is given as “Transparent”; the “Appearance, t = 48 h” value is “Transparent”.

On to `CCCCCCCCCCCCC1=NS(=O)(=O)c2ccccc21` [Bleach catalyst D, 3-lauryl-1,2-benzisothiazole-1,1-dioxide], for which, in data set [1], the “Absorption at 445 nm, t = 0” value is listed as less than 0.05; the “Absorption at 445 nm, t = 48 h” value was determined as 0.07; the “Appearance, t = 0” value is recorded as “Transparent”; the “Appearance, t = 48 h” value is recorded as “coloured/yellow; also recorded: Yellowing”.

These data come from patent US20260286254A1, “Bleach Catalyst and Composition Comprising Said Catalyst” (Reckitt Benckiser Vanish B.V., priority 2023, published 2026).
